# Earlier results in patent US20230000903A1, “METHODS AND SYSTEMS FOR NITRIC OXIDE THERAPY FOR THE TREATMENT OR PREVENTION OF RESPIRATORY INFECTIONS” (KNOW Bio, LLC, priority 2020, published 2023).
smiles,measurement,setting,value
"[N]=O [NO, nitric oxide]",radius of action from its site of origin,beyond which it is inactivated by binding to thiols or heme of hemoglobin,approximately 200 microns
same,half-life in the body,in the body,less than 6 seconds
same,share of the nitric oxide dose inhaled excreted in the urine as nitrate,"urine, nitrate as predominant metabolite, inhaled dose",more than 70%
